How the values were obtained:
Format in all cases: biochemical
[1] = target: T1, panel of kinases (Homo sapiens, UniProt P51813); experiment: Inhibition of a panel of kinases (in vitro HotSpot kinase assay, 33P-ATP, 1 μM ATP), other kinases; conditions: BMX wild-type, read-out: BMX-WT IC50
T1 sequence (P51813 1-675): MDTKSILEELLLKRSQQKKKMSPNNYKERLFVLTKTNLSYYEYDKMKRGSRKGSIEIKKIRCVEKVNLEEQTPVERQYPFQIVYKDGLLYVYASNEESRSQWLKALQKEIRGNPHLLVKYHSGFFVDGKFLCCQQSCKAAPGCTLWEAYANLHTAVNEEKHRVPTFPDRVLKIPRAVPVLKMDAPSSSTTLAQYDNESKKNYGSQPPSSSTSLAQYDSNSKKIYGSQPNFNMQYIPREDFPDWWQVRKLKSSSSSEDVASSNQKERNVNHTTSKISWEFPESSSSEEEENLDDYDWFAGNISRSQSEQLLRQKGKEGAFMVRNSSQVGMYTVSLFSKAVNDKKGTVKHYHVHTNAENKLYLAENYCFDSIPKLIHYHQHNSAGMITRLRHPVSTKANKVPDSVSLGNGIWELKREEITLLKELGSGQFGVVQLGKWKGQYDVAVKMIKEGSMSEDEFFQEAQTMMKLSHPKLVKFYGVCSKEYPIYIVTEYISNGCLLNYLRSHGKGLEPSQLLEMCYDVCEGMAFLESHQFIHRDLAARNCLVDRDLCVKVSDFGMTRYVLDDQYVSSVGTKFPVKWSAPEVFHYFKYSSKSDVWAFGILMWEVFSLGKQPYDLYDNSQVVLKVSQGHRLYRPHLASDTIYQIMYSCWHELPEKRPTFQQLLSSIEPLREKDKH
Method: Example 63: Inhibition of a Panel of Kinases The degree of inhibition of a panel of kinases is determined using the in vitro HotSpot kinase assay (purified enzymes, ^33P-ATP, an appropriate substrate and 1 μM ATP).

[2] = target: T2, TEC (Homo sapiens, UniProt P42680); experiment: Inhibition of a panel of kinases (in vitro HotSpot kinase assay, 33P-ATP, 1 μM ATP); conditions: for IC50: HotSpot kinase assay, 1 μM ATP
T2 sequence (P42680 1-631): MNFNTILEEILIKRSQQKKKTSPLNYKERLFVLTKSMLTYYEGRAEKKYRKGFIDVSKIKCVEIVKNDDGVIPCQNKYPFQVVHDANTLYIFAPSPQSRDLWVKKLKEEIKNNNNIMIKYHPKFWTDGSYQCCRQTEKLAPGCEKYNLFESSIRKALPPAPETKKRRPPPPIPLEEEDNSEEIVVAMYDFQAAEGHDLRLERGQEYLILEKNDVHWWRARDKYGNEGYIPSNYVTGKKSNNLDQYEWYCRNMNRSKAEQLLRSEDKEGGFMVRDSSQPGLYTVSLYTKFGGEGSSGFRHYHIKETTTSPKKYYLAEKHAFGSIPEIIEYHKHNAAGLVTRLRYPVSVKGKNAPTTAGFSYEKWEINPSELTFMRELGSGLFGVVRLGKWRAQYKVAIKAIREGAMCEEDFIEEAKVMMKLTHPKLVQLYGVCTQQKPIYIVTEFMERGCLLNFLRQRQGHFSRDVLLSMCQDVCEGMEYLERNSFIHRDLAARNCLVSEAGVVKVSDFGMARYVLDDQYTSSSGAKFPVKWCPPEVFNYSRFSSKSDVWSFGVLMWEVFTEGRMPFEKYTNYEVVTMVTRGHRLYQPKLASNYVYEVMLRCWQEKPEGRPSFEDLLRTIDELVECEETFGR
Summary of the method: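 At 1 μM ATP spiked with 33P-ATP, substrate phosphorylation by the purified enzymes gives the extent of inhibition.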

[3] = target: T3, Btk (Homo sapiens, UniProt Q06187); experiment: Btk in vitro inhibitory activity (one of Method A TR-FRET, Method B electrophoretic mobility shift, Method C radiometric filter binding); conditions: wild-type Btk; read-out: Btk-WT IC50
T3 construct: purified from insect cells as a full-length construct containing a N-terminal 6X-His tag; His6 (N); made in house; host or cells: insect cells (Method C)
Summary of the method: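 Three alternative formats were used. A radiometric filter-binding read used 8 nM full-length His-BTK with 0.2 mg/mL poly(Glu-Tyr) 4:1 (C); microfluidic separation of 1 μM FAM-peptide by 1 nM BTK gave IC50 from 12-point curves (B); TR-FRET at Km ATP, 0.5 nM Btk, gave Ki(app)-derived IC50 (A).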

T3 sequence (Q06187 whole entry): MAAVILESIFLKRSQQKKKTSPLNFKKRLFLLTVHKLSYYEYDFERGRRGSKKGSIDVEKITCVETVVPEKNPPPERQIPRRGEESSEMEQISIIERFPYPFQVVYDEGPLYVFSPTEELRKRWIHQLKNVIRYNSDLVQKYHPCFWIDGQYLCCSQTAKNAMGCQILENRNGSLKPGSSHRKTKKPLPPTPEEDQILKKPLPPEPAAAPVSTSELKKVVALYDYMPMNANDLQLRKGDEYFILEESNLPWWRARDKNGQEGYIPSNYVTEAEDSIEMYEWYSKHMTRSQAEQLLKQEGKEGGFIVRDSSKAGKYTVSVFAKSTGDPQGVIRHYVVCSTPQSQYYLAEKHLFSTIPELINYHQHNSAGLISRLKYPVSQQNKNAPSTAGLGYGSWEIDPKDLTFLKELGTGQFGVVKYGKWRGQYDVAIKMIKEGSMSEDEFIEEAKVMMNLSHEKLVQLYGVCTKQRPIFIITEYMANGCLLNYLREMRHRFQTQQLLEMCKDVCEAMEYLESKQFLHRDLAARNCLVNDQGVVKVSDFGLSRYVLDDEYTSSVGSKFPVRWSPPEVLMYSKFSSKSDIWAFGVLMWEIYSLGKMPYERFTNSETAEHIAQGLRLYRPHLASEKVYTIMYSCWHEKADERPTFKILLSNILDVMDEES

| IC50 [1] [µM] | TEC/Btk ([2]; ratio of TEC IC50 to Btk IC50 (selectivity)) | IC50 [3] [nM] | IC50 [2] [µM] | SMILES |
| --- | --- | --- | --- | --- |
| 2.58 | 10 | – | – | OCc1ccc(-c2ccnc3[nH]nc(N[C@H]4CC[C@H](O)CC4)c23)cc1F [Compound 11] |
| 3.18 | – | 137 | – | CC(=O)N[C@@H]1CCN(c2n[nH]c3nccc(-c4ccc(CNC(=O)c5nc6c(o5)CCCC6)c(F)c4)c23)C1 [Example 198, N-[(4-{3-[(3R)-3-acetamidopyrrolidin-1-yl]-1H-pyrazolo[3,4-b]pyridin-4-yl}-2-fluorophenyl)methyl]-4,5,6,7-tetrahydro-1,3-benzoxazole-2-carboxamide] |
| 6.81 | – | 6.45 | – | C[C@@H](NC(=O)c1nc(C(C)(C)C)no1)c1ccc(-c2ccnc3[nH]nc(NC4CCOC4)c23)cc1 (stereo partly drawn) [Example 217, 3-tert-butyl-N-[(1R)-1-(4-{3-[(oxolan-3-yl)amino]-1H-pyrazolo[3,4-b]pyridin-4-yl}phenyl)ethyl]-1,2,4-oxadiazole-5-carboxamide] |
| 6.6 | – | 19.1 | – | C[C@@H](NC(=O)c1nc(C(C)(C)C)no1)c1ccc(-c2ccnc3[nH]nc(NC4CCOCC4)c23)cc1 [Example 218, 3-tert-butyl-N-[(1R)-1-(4-{3-[(oxan-4-yl)amino]-1H-pyrazolo[3,4-b]pyridin-4-yl}phenyl)ethyl]-1,2,4-oxadiazole-5-carboxamide] |
| 9.08 | – | 40.8 | – | C[C@@H](NC(=O)c1noc(C(C)(C)C)n1)c1ccc(-c2ccnc3[nH]nc(C4=CCCN(C(=O)N(C)C)C4)c23)cc1 [Example 254, 5-[4-(4-{(1R)-1-[(5-tert-butyl-1,2,4-oxadiazole-3-carbonyl)amino]ethyl}phenyl)-1H-pyrazolo[3,4-b]pyridin-3-yl]-N,N-dimethyl-3,6-dihydropyridine-1(2H)-carboxamide] |
| 5.04 | – | – | – | Cc1c(NC(=O)c2noc(C(C)(C)C)n2)cccc1-c1ccnc2[nH]nc(N[C@@H]3CCNC3)c12 [Example 266, 5-tert-butyl-N-[2-methyl-3-(3-{[(3R)-pyrrolidin-3-yl]amino}-1H-pyrazolo[3,4-b]pyridin-4-yl)phenyl]-1,2,4-oxadiazole-3-carboxamide] |
| 3.02 | – | – | 4.47 | CC(C)(C)c1ccc(C(=O)NCc2ccc(-c3ccnc4[nH]nc(NC5CCNC5)c34)cn2)cc1 (stereo not shown) [Example 268, 4-tert-butyl-N-[(5-{3-[(pyrrolidin-3-yl)amino]-1H-pyrazolo[3,4-b]pyridin-4-yl}pyridin-2-yl)methyl]benzamide] |
| 8.43 | – | 147 | – | CC(C)(C)c1nc(C(=O)NCc2ccc(-c3ccnc4[nH]nc(C[C@H]5CCNC5)c34)cc2F)no1 [Example 274, (R)-5-tert-butyl-N-[(2-fluoro-4-{3-[(pyrrolidin-3-yl)methyl]-1H-pyrazolo[3,4-b]pyridin-4-yl}phenyl)methyl]-1,2,4-oxadiazole-3-carboxamide] |
| 7.86 | – | 93.5 | – | CC(C)(C)c1nc(C(=O)NCc2ccc(-c3ccnc4[nH]nc(C5CCNC5)c34)cc2F)no1 (stereo not shown) [Example 278, 5-tert-butyl-N-({2-fluoro-4-[3-(pyrrolidin-3-yl)-1H-pyrazolo[3,4-b]pyridin-4-yl]phenyl}methyl)-1,2,4-oxadiazole-3-carboxamide] |
| 9.58 | – | 677 | – | CC(C)c1cc(C(=O)NCc2ccc(-c3ccnc4[nH]nc(N[C@@H]5CCCN(C(=O)N(C)C)[C@@H]5C)c34)cc2F)no1 [Example 305, (2R,3R)-3-({4-[3-fluoro-4-({[5-(propan-2-yl)-1,2-oxazole-3-carbonyl]amino}methyl)phenyl]-1H-pyrazolo[3,4-b]pyridin-3-yl}amino)-N,N,2-trimethylpiperidine-1-carboxamide] |
| 5.23 | – | 8.74 | – | C=CC(=O)N[C@@H]1CCCC[C@H]1Nc1n[nH]c2nccc(-c3ccc(CNC(=O)c4cc(C(C)(C)C)on4)c(F)c3)c12 [Example 313, 5-tert-butyl-N-({2-fluoro-4-[3-({(1R,2R)-2-[(prop-2-enoyl)amino]cyclohexyl}amino)-1H-pyrazolo[3,4-b]pyridin-4-yl]phenyl}methyl)-1,2-oxazole-3-carboxamide] |
| 8.66 | – | – | – | C[C@@H]1[C@H](Nc2n[nH]c3nccc(-c4ccc(CNC(=O)c5cc(C(C)(C)O)on5)c(F)c4)c23)CCCN1C(=O)N(C)C [Example 316, (2R,3R)-3-({4-[3-fluoro-4-({[5-(2-hydroxypropan-2-yl)-1,2-oxazole-3-carbonyl]amino}methyl)phenyl]-1H-pyrazolo[3,4-b]pyridin-3-yl}amino)-N,N,2-trimethylpiperidine-1-carboxamide] |
| 6.55 | – | – | – | C[C@@H]1[C@H](Nc2n[nH]c3nccc(-c4ccc(CNC(=O)c5cc(C(C)(C)N)on5)c(F)c4)c23)CCCN1C(=O)N(C)C [Example 317, (2R,3R)-3-({4-[4-({[5-(2-aminopropan-2-yl)-1,2-oxazole-3-carbonyl]amino}methyl)-3-fluorophenyl]-1H-pyrazolo[3,4-b]pyridin-3-yl}amino)-N,N,2-trimethylpiperidine-1-carboxamide] |
| 2.03 | – | 901 | – | O=C(NCc1ccc(-c2ccnc3[nH]nc(NC4CCNC4)c23)cc1F)c1cc(Cl)on1 (stereo not shown) [Example 341, 5-chloro-N-[(2-fluoro-4-{3-[(pyrrolidin-3-yl)amino]-1H-pyrazolo[3,4-b]pyridin-4-yl}phenyl)methyl]-1,2-oxazole-3-carboxamide] |
| 1.72 | – | – | – | CN(C)C(=O)N1CC[C@@H](Nc2n[nH]c3nccc(-c4ccc(CNC(=O)c5cc(Cl)on5)c(F)c4)c23)C1 [Example 343, 5-chloro-N-{[4-(3-{[(3R)-1-(dimethylcarbamoyl)pyrroli-din-3-yl]amino}-1H-pyrazolo[3,4-b]pyridin-4-yl)-2-fluorophenyl]methyl}-1,2-oxazole-3-carboxamide] |
| 5.67 | – | – | – | O=C(NCc1ccc(-c2ccnc3[nH]nc(N[C@@H]4CCNC4)c23)cc1F)c1cc(-c2ccccc2)on1 [Example 344, (R)-N-[(2-fluoro-4-{3-[(pyrrolidin-3-yl)amino]-1H-pyrazolo[3,4-b]pyridin-4-yl}phenyl)methyl]-5-phenyl-1,2-oxazole-3-carboxamide] |
| 9.78 | – | – | – | C[C@@H](NC(=O)c1cc(C(C)(C)O)on1)c1ccc(-c2ccnc3[nH]nc(NC4CCS(=O)(=O)CC4)c23)cc1 [Example 385, N-[(1R)-1-(4-{3-[(1,1-dioxo-1λ^6-thian-4-yl)amino]-1H-pyrazolo[3,4-b]pyridin-4-yl}phenyl)ethyl]-5-(2-hydroxypropan-2-yl)-1,2-oxazole-3-carboxamide] |
| 4.32 | – | – | 9.27 | C[C@@H](NC(=O)c1cc(C(C)(C)O)on1)c1ccc(-c2ccnc3[nH]nc(NC4CCCCC4)c23)cc1 [Example 399, N-[(1R)-1-{4-[3-(cyclohexylamino)-1H-pyrazolo[3,4-b]pyridin-4-yl]phenyl}ethyl]-5-(2-hydroxypropan-2-yl)-1,2-oxazole-3-carboxamide] |
| 5.2 | – | – | – | C[C@@H](NC(=O)c1cc(C(C)(C)O)on1)c1ccc(-c2ccnc3[nH]nc(NC4CCOCC4)c23)cc1 [Example 400, 5-(2-hydroxypropan-2-yl)-N-[(1R)-1-(4-{3-[(oxan-4-yl)amino]-1H-pyrazolo[3,4-b]pyridin-4-yl}phenyl)ethyl]-1,2-oxazole-3-carboxamide] |

Reference: patent US20180194762A1 (Pharmacyclics LLC, priority 2017, published 2018)
